Results taken from patent US20150344466A1 (SUMITOMO CHEMICAL COMPANY, LIMITED, priority 2013, published 2015).

Assays:
Type in all cases: in vivo
Blattella germanica = experiment: Knockdown spray test on Blattella germanica, 0.1% w/v oil formulation (Test Example 2); conditions: topical, 0.25 h, active ingredient 0.1% w/v, 1.5 ml sprayed, within 15 minutes, read-out: knockdown rate of the test insects within 15 minutes
Summary of the method: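 Ten German cockroaches (5 males, 5 females) in a mesh-bottomed, butter-walled container were sprayed with 1.5 ml test solution from 60 cm at 0.42 kg/cm^2 inside a chamber.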

Culex pipiens pallens [1] = experiment: Knockdown spray test on adult Culex pipiens pallens (Test Example 4); conditions: topical, 0.25 h, active ingredient 0.1% w/v, 0.5 ml sprayed, within 15 minutes, read-out: knockdown rate of the test insects within 15 minutes
Summary of the method: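 Knockdown counts were taken 2, 5 and 15 min after spraying and expressed as percent of the 10 adults tested. For the spray, 0.5 ml of solution was applied by spray gun (0.4 kg/cm^2) from 30 cm above a gauze-covered cup in a test chamber; the cup was taken out right after spraying.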

Culex pipiens pallens [2] = experiment: Larvicidal test on Culex pipiens pallens, eight days (Test Example 7); conditions: 192 h; last-instar larvae of Culex pipiens pallens; 3.5 ppm in water; eight days later; read-out: death rate
Summary of the method: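 Twenty last-instar larvae placed in 100 ml ion-exchanged water containing test drug at 3.5 ppm active ingredient. Mortality scored after eight days; death rate = dead/tested × 100.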

Aphis gossypii = experiment: Foliar spray test on Aphis gossypii on cucumber (Test Example 8); conditions: 144 h, 500 ppm spray 20 ml/cup, Sir days after spraying, read-out: controlling value
Protocol: On the other hand, cucumber was planted in a polyethylene cup and grown until the first true leaf was spread, and about 20 Aphis gossypii were allowed to parasitize the cucumber. One day after, the test spray solution was sprayed to the cucumber at a ratio of 20 ml/cup. Sir days after spraying, the number of Aphis gossypii was investigated, and the controlling value was calculated according to the following equation. Controlling value (%)={1−(Cb×Tai)/(Cai×Tb)}×100 In the equation, the symbols represent as follows. Cb: the number of insects in a non-treated section before treatment Cai: the number of insects in a non-treated section on observation Tb: the number of insects in a treated section before treatment Tai: the number of insects in a treated section on observation

Plutella xylostella = experiment: Foliar spray test on Plutella xylostella on cabbage (Test Example 10); conditions: 120 h, third instar larvae of Plutella xylostella on cabbage, 500 ppm spray 20 ml/cup, after five days, read-out: controlling value
Summary of the method: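 Cabbage at the third–fourth true-leaf stage sprayed with test solution at 20 ml/cup, dried, then infested with 10 third-instar larvae. Insects counted after five days; controlling value (%) calculated from treated and non-treated counts before treatment and at observation.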

Spodoptera litura = experiment: Foliar spray test on Spodoptera litura on cabbage (Test Example 11); conditions: 96 h, fourth instar larvae of Spodoptera litura on cabbage, 500 ppm spray 20 ml/cup, after 4 days, read-out: controlling value
Summary of the method: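 Cabbage is grown in cups to the third–fourth true leaf and sprayed at 20 ml/cup. Once the spray has dried, 10 fourth-instar larvae are released per cup and survivors are counted after 4 days. Controlling value (%) is corrected using pre-treatment and observation counts in treated and untreated sections.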

[3] = system: Adoxophyes orana fasciata; experiment: Spray test on Adoxophyes orana fasciata on apple seedling (Test Example 12); conditions: 168 h, first-instar larvae of Adoxophyes orana fasciata on apple seedling, 20 ml spray, seven days after spraying
Protocol: On the other hand, 20 ml of the test spray solution was each sprayed on an apple seedling (28 days after sowing, a tree height of about 15 cm) planted in a plastic cup. After the drug solution sprayed on the apple was air-dried, about 30 first-instar larvae of Adoxophyes orana fasciata were released. Seven days after spraying, the number of surviving Adoxophyes orana fasciata on the apple seedling was investigated, and the controlling value was calculated according to the following equation. Controlling value (%)={1−(Cb×Tai)/(Cai×Tb)}×100 In the equation, the symbols represent as follows. Cb: the number of insects in a non-treated section before treatment Cai: the number of insects in a non-treated section on observation Tb: the number of insects in a treated section before treatment Tai: the number of insects in a treated section on observation

`O=C(NCC1CCOCC1)c1cc(COCc2ccc(Cl)c(Cl)c2)on1` [(73), N-(tetrahydropyran-4-ylmethyl)-5-(3,4-dichlorobenzyloxymethyl)isoxazole-3-carboxamide] was tested, and the pest or weed control at 0.1 % strength (Blattella germanica) was no less than 80%, the pest or weed control at 0.1 % strength (Culex pipiens pallens [1]) was no less than 80% and the pest or weed control at 3.5 ppm (Culex pipiens pallens [2]) was no less than 90%. The pest or weed control at 500 ppm (Aphis gossypii) was no less than 90%, the pest or weed control at 500 ppm (Plutella xylostella) was no less than 90% and the pest or weed control at 500 ppm (Spodoptera litura) was no less than 80%. The pest or weed control at 500 ppm [3] was 100%.
